Test [1] addresses T1, B. subtilis EngA (Bacillus subtilis, UniProt P50743).
T1 construct: full-length EngA (named hereafter as EngA) and its two shortened EngA variants, GD1 and GD2-KH were overexpressed in E. coli; His-tag (from pET15b; purified on Ni-IDA) (N); made in house; host or cells: E. coli C41(DE3)
It counts as biochemical. The method, then:
(§1) GTPase activities were determined using a coupled-enzymatic assay containing pyruvate kinase and lactate dehydrogenase as previously described. The proteins (2 µM or 8 µM of EngA in the presence of KCl or NaCl, respectively, and 4 µM for GD1 and 12.5 µM for GD2-KH) and the coupled assay system containing 50 mM Tris/HCl pH 8, 4 mM phosphoenol pyruvate, 0.4 mM NADH, 1 mM MgCl2, 30 µg pyruvate kinase and 15 µg lactate dehydrogenase, were mixed into a quartz cuvette (final volume of 750 µl) in the presence of GTP (up to 1 mM) and salts, either KCl or NaCl, as indicated in the figure legends. When the GTPase and XTPase activities of the wild-type EngA and the single point mutants were studied (Fig. 7), the assay medium (final volume of 500 µl) contained 3 mM MgCl2 and the pyruvate kinase was increased to 120 µg to ensure an immediate conversion of XDP back into XTP. The reaction was started by adding 3.2 µM or 0.8 µM of wild-type EngA or single point mutants in the absence or presence of 300 mM K^+, respectively. GTP or XTP hydrolysis was monitored by following the change in absorbance at 340 nm upon conversion of NADH to NAD^+, for 10 min at 37°C, using either a Hitachi U3350 or a Safas UVmc^2 spectrophotometer. The slope measured (ΔDO/min) was used to calculate the activity of the protein taking into account the εNADH340nm = 6220 l.mol^−1.cm^−1. Control experiments were systematically performed in the absence of nucleotides (protein alone) or in the absence of proteins (nucleotides alone) and the activities measured in all cases were negligible. Between many different EngA preparations, the specific activities measured at 1 mM GTP varied between 100–130 nmoles/min/mg protein.

Test [2] concerns the target T2, B. subtilis EngA (Bacillus subtilis, UniProt P50743).
T2 construct: full-length EngA (named hereafter as EngA) and its two shortened EngA variants, GD1 and GD2-KH were overexpressed in E. coli; His-tag (from pET15b; purified on Ni-IDA) (N); made in house; host or cells: E. coli C41(DE3)
T2 sequence (P50743 1-436): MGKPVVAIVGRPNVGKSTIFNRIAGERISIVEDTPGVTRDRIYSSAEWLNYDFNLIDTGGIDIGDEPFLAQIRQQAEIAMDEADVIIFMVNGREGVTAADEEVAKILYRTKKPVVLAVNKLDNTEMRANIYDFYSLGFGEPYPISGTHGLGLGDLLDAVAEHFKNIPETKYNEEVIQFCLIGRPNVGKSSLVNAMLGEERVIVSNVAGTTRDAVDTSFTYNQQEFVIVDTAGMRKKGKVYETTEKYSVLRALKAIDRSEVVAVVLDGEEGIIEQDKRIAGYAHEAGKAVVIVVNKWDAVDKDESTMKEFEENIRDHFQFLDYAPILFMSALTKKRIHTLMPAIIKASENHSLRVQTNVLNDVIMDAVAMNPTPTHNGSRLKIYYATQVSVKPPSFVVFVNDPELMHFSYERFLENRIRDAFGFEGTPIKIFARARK
Put plainly: Nucleotide binding monitored by intrinsic tryptophan fluorescence. The settings on record: KD. The method, then: (§2) Fluorescence measurements were performed essentially as described previously for the unmodified nucleotides or the N-methylanthraniloyl-GDP (MANT-GDP) analogue using a PTI QuantaMaster 4 spectrofluorimeter, [62]. Dissociation constants (K D) for nucleotides were calculated by monitoring intrinsic tryptophan fluorescence variation using 295 nm excitation wavelength, with a slit width of 2 nm, and scanning emission fluorescence between 310 and 400 nm (for the unmodified nucleotide) or 400 and 500 nm (for MANT-GDP), with a slit width of 4 nm. For the intrinsic tryptophan fluorescence, inner filter effect was corrected using N-Acetyltryptophanamide (NATA) as a reference. 1 µM NATA or 0.5 µM of YphC were mixed with 50 mM Tris/HCl pH 8, 2 mM MgCl2, NaCl or KCl and increasing amount of nucleotide (GDP, GMPPNP or MANT-GDP), as indicated in the figure legends. The fluorescence was normalized respective to the integrated value of the fluorescence peak obtained in the absence of unmodified nucleotide (between 310 and 400 nm) or MANT-GDP (between 400 and 500 nm). The data were fitted using the GraFit 5.0.11 software with the following equation: [drawing 1] where F is the relative fluorescence intensity in the presence of nucleotide, F min is the relative fluorescence in the absence of nucleotide, F max is the fluorescence intensity at saturating concentration of nucleotide, L is the nucleotide concentration, E is the protein concentration and K D is the dissociation constant of the protein-nucleotide complex.

For test [3], the target named is T3, GD1 (shortened B. subtilis EngA variant) (Bacillus subtilis, UniProt P50743).
T3 construct: two shortened EngA variants that only contain GD1 or GD2-KH; His-tag (from pET15b; purified on Ni-IDA) (N); made in house; host or cells: E. coli C41(DE3)
Described as above. The method, then: as §2

For test [4], the target named is T4, GD2-KH (shortened B. subtilis EngA variant) (Bacillus subtilis, UniProt P50743).
T4 construct: two shortened EngA variants that only contain GD1 or GD2-KH; His-tag (from pET15b; purified on Ni-IDA) (N); made in house; host or cells: E. coli C41(DE3)
The test is described as above. The method, then: as §2

The next test deals with T5, EngA (Bacillus subtilis, UniProt P50743).
T5 construct: full-length EngA (named hereafter as EngA) and its two shortened EngA variants, GD1 and GD2-KH were overexpressed in E. coli; His-tag (from pET15b; purified on Ni-IDA) (N); made in house; host or cells: E. coli C41(DE3)
T5 sequence (P50743 1-436): T2 sequence (P50743 1-436)
The test can be described thus: Fluorescence-based Thermal Shift Assay (TSA). The test is classed as binding. The settings on record: EngA with 1 mM nucleotide; no effector Tm 41.5. The method, then: (§3) Assays were performed into a 96-well thin-wall PCR plate (BioRad) using an IQ5 96-well format real-time PCR instrument (Bio-Rad) over a temperature range from 20°C to 90°C with temperature increments of 0.2°C [64]. Assay samples (23 µl) contained 50 mM Tris/HCl pH 8, 0.5 mg/ml of EngA or 1.5 mg/ml of GD1 or GD2-KH, and concentration of salt and/or nucleotides as indicated, and 2 µl of SYPRO Orange solution (Molecular Probes, Eugene, OR, 500x in DMSO diluted 5 times in water) was added. The plates were heated and changes in fluorescence for the environmentally sensitive dye SYPRO Orange were monitored through a charge-coupled device (CCD) camera. The melting temperature (Tm) values for each protein were determined graphically from the fluorescence first derivative of the melting curves. The wavelengths for excitation and emission were 470 nm and 570 nm, respectively.

For test [5], the target named is T6, GD1 (Bacillus subtilis, UniProt P50743).
T6 construct: two shortened EngA variants that only contain GD1 or GD2-KH; His-tag (from pET15b; purified on Ni-IDA) (N); made in house; host or cells: E. coli C41(DE3)
T6 sequence (P50743 4-167 limits assumed): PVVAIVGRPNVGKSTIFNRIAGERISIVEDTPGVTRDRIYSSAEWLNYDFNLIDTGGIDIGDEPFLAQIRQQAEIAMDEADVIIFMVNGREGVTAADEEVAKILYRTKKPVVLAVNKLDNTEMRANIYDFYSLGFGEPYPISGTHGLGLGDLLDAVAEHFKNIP
The test can be described thus: Fluorescence-based Thermal Shift Assay (TSA). The test is classed as binding. The method, then: as §3

The target of test [6] is T7, GD2-KH (Bacillus subtilis, UniProt P50743).
T7 construct: two shortened EngA variants that only contain GD1 or GD2-KH; His-tag (from pET15b; purified on Ni-IDA) (N); made in house; host or cells: E. coli C41(DE3)
T7 sequence (P50743 173-436): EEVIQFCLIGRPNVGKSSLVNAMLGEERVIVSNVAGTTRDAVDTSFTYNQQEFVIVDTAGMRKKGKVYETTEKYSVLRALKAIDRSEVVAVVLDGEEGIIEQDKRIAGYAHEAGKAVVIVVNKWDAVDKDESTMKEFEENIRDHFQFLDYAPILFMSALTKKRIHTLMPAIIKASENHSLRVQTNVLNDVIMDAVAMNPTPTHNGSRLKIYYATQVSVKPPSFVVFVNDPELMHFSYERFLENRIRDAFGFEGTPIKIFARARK
The test can be described thus: Fluorescence-based Thermal Shift Assay (TSA). It counts as binding. Here is the method: as §3

The target in a further test is S. typhimurium EngA. Details: method as in PMID 17905831. As to conditions: both G-domains; cited from earlier work.
For test [7], the target named is T6, GD1. The test can be described thus: GTP hydrolysis coupled-enzymatic assay. It counts as biochemical. The method, then: as §1
The target of test [8] is T7, GD2-KH. The test can be described thus: GTP hydrolysis coupled-enzymatic assay. It counts as biochemical. The method, then: as §1
The next test relates to T. maritima EngA. The settings on record: cited from earlier work.

A word on the Kd: it is the free concentration of one partner at which half of the binding sites on the other are occupied at equilibrium, for simple one-to-one binding. A word on the Tm: it is the temperature at which the thermal transition is half complete.

Turning to `[Na+]` [sodium], the “effect of salt on the GTPase activity of EngA” value on B. subtilis EngA [1] (K+ replaced by other monovalent cation, 1 mM GTP) was “no effect”.
For `Nc1nc2c(ncn2[C@@H]2O[C@H](COP(=O)(O)OP(=O)(O)O)[C@@H](O)[C@H]2O)c(=O)[nH]1` [GDP], the Kd at B. subtilis EngA [2] (300 mM KCl) came out at 16.3 ± 2.3 µM; at B. subtilis EngA [2] (300 mM NaCl) it was 12.8 ± 2.9 µM; on B. subtilis EngA [2] (no salt (absence of K+), 2 mM MgCl2, 25°C) it was 8 ± 1 µM; in [3] (GD1, 300 mM KCl), 4.5 ± 0.9 µM; in test [3] (GD1, 300 mM NaCl), 2.7 ± 0.4 µM; in [4] (300 mM KCl), 2.9 ± 0.8 µM. Further, the Kd in test [4] (300 mM NaCl) was 1.6 ± 0.2 µM; at S. typhimurium EngA, 1 to 3 µM. In addition, the Tm at EngA worked out at 59.4 °C; at GD1 [5] (GD1 with 1 mM nucleotide, no effector Tm 51) it was 64 °C; at GD2-KH [6] (GD2-KH with 1 mM nucleotide, no effector Tm 42.8), 55.8 °C. For the same molecule, the ΔTm at 1000 µM at GD1 [5] (pH 8, read-out: Tm increase) was roughly 13 °C; on GD2-KH [6] (pH 8, read-out: Tm increase) it was roughly 13 °C.
Consider `[K+]` [K^+, potassium], for which the “increase in catalytic efficiency of EngA” value at B. subtilis EngA [1] (300 mM K+ vs absence of K+) stood at 20 fold. Besides, the “stimulation of the GTPase activity of EngA” value on B. subtilis EngA [1] (1 M KCl, 1 mM GTP) is recorded as roughly 15 fold. The GTPase activity on B. subtilis EngA [1] (EngA, 0.4 M KCl) is roughly 5 min⁻¹; at GD1 [7] (GD1, 1M KCl) it was roughly 3.4 min⁻¹; at GD2-KH [8] (GD2-KH, 1M KCl), roughly 0.45 min⁻¹; in the test on T. maritima EngA (0.4 M KCl) it was 0.11 min⁻¹. At GD1 [7] (GD1), the “K+ concentration giving maximal GTPase activity” value worked out at 500 mM. Moreover, the “increase of GTPase activity upon K+ binding” value on GD2-KH [8] (GD2 domain) was roughly 100 fold. For the same molecule, in the test on T. maritima EngA (T. maritima EngA), the “stimulation of GTPase activity by K+” value is reported as “about 4 fold”.

The values above are taken from PMC3466195, “Potassium Acts as a GTPase-Activating Element on Each Nucleotide-Binding Domain of the Essential Bacillus subtilis EngA” (PLoS ONE, 2012).
